Structures can show the parent of a compound that is named as a salt.
Target: T1, Tyk2 (Homo sapiens, UniProt P29597)
T1 construct: purchased Invitrogen
Test: Tyk2 enzyme inhibition test (LANCE method)
Assay type: biochemical
Settings: test compound 1 μM; well without enzyme = 100% inhibition; read-out: Tyk2 enzyme inhibitory activity (%, 1 μM)
Description: Tyk2 Enzyme Inhibition Test
Tyk2 enzyme inhibitory activity of test compounds was measured by LANCE method (PerkinElmer). First, a test compound diluted with assay buffer (50 mM HEPES (pH=7.5), 10 mM MgCl2, 1 mM EGTA, 2 mM DTT, 0.01% Tween20, 0.01% BSA) was added to 384-well plate at 2 μL each. Then, a Tyk2 (Invitrogen) solution and a fluorescence-labeled peptide substrate (ULight-JAK1, PerkinElmer) solution diluted with assay buffer at 375 ng/mL and 300 nM, respectively were added at 2 μL each. Then, enzyme reaction was started by adding 2 μL each of ATP solution prepared with assay buffer at 30 μM. After the reaction at room temperature for 1 hr, Detection Buffer (PerkinElmer) prepared to be 20 mM EDTA, 4 nM europium-labeled anti-phosphotyrosine antibody (PerkinElmer) was added at 6 μL each. After standing at room temperature for 1 hr, fluorescence intensity (excitation wavelength 340 nm, fluorescence wavelength 665 nm, delay time 100 microsecond) was measured by a plate reader, Envision (PerkinElmer). The inhibitory activity of each compound was calculated as relative value where fluorescence intensity of a well without enzyme is considered as 100% inhibition.

T1 sequence (P29597 whole entry): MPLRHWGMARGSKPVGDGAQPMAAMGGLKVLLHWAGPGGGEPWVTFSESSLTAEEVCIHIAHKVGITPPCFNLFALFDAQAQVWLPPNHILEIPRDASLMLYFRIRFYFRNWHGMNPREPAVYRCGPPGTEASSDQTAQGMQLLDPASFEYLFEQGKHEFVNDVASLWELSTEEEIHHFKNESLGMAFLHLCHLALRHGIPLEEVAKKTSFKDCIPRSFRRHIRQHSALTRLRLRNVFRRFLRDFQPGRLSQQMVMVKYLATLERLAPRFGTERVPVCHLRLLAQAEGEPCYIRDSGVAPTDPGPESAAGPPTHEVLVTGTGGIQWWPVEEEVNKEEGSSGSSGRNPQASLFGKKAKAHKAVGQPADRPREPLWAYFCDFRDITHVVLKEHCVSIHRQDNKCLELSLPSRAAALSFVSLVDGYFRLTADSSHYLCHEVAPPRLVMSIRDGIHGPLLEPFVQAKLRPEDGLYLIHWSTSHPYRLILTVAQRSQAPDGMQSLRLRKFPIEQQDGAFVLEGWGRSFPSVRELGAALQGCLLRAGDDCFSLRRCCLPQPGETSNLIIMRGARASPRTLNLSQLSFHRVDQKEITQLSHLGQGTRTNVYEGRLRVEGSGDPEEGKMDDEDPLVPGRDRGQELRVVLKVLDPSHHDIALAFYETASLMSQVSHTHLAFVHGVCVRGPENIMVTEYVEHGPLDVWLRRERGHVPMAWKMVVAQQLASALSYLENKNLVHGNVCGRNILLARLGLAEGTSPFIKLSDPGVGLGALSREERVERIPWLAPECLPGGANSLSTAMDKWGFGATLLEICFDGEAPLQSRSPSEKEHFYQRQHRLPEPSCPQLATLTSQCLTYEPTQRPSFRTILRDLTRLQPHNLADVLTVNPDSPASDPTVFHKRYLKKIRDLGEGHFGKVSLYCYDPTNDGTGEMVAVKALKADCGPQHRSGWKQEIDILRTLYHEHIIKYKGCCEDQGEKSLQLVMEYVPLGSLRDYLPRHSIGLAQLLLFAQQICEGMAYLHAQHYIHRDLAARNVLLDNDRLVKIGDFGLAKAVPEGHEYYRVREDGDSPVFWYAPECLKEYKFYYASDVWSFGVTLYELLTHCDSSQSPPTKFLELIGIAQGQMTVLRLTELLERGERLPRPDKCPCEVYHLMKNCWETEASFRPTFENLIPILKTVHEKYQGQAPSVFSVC

## N#C[C@@]1(C2CC2)CCN(c2ccnc(Nc3ccc(N4CCOCC4)cn3)c2)C1=O [Example 1, (3S)-3-cyclopropyl-1-(2-((5-(morpholin-4-yl)pyridin-2-yl)amino)pyridin-4-yl)-2-oxopyrrolidine-3-carbonitrile]
  inhibition at 1 µM: 99%

## CC(C)(O)c1ccc(Nc2cc(N3CC[C@@](C#N)(C4CC4)C3=O)ccn2)nc1 [Example 3, (3S)-3-cyclopropyl-1-(2-((5-(2-hydroxypropan-2-yl)pyridin-2-yl)amino)pyridin-4-yl)-2-oxopyrrolidine-3-carbonitrile]
  inhibition at 1 µM: 99%

## CNC(=O)c1cc(Nc2cc(N3CC[C@@](C#N)(C4CC4)C3=O)ccn2)nn1C [Example 5, 3-((4-((3S)-3-cyano-3-cyclopropyl-2-oxopyrrolidin-1-yl)pyridin-2-yl)amino)-N,1-dimethyl-1H-pyrazole-5-carboxamide]
  inhibition at 1 µM: 101%

## CC(=O)Nc1ccnc(Nc2cc(N3CC[C@@](C#N)(C4CC4)C3=O)ccn2)c1 [Example 29, N-(2-((4-((3S)-3-cyano-3-cyclopropyl-2-oxopyrrolidin-1-yl)pyridin-2-yl)amino)pyridin-4-yl)acetamide]
  inhibition at 1 µM: 100%

## Cn1nc(Nc2cc(N3CC[C@@](C#N)(C4CC4)C3=O)ccn2)cc1N1CCOCC1 [Example 31, (3S)-3-cyclopropyl-1-(2-((1-methyl-5-(morpholin-4-yl)-1H-pyrazol-3-yl)amino)pyridin-4-yl)-2-oxopyrrolidine-3-carbonitrile]
  inhibition at 1 µM: 100%

## N#C[C@@]1(C2CC2)CCN(c2ccnc(Nc3cc(C(F)(F)F)ncn3)c2)C1=O [Example 43, (3S)-3-cyclopropyl-2-oxo-1-(2-((6-(trifluoromethyl)pyrimidin-4-yl)amino)pyridin-4-yl)pyrrolidine-3-carbonitrile]
  inhibition at 1 µM: 95%

## N#C[C@@]1(C2CC2)CCN(c2ccnc(Nc3cccnn3)c2)C1=O [Example 92, (3S)-3-cyclopropyl-2-oxo-1-(2-(pyridazin-3-ylamino)pyridin-4-yl)pyrrolidine-3-carbonitrile]
  inhibition at 1 µM: 96%

## CCC1(C#N)CCN(c2ccnc(Nc3ccc(N4CCOCC4)cn3)c2)C1=O (stereo not shown) [Example 126, 3-ethyl-1-(2-((5-(morpholin-4-yl)pyridin-2-yl)amino)pyridin-4-yl)-2-oxopyrrolidine-3-carbonitrile hydrochloride]
  inhibition at 1 µM: 72%

## N#CC1(C2CC2)CCN(c2ccnc(Nc3ccc(N4CCOCC4)cn3)c2)C1=O (stereo not shown) [Example 127, 3-cyclopropyl-1-(2-((5-(morpholin-4-yl)pyridin-2-yl)amino)pyridin-4-yl)-2-oxopyrrolidine-3-carbonitrile]
  inhibition at 1 µM: 83%

## CC(C)(CO)n1cc(Nc2cc(N3CCC(C#N)(C4CC4)C3=O)ccn2)cn1 (stereo not shown) [Example 129, 3-cyclopropyl-1-(2-((1-(1-hydroxy-2-methylpropan-2-yl)-1H-pyrazol-4-yl)amino)pyridin-4-yl)-2-oxopyrrolidine-3-carbonitrile]
  inhibition at 1 µM: 90%

## CNC(=O)c1cc(Nc2cc(N3C(=O)[C@](C#N)(C4CC4)C[C@H]3C)ccn2)nn1C [Example 136, 3-((4-((3S,5R)-3-cyano-3-cyclopropyl-5-methyl-2-oxopyrrolidin-1-yl)pyridin-2-yl)amino)-N,1-dimethyl-1H-pyrazole-5-carboxamide]
  inhibition at 1 µM: 106%

## C[C@@H]1C[C@@](C#N)(C2CC2)C(=O)N1c1ccnc(Nc2cc(C(N)=O)n(C)n2)c1 [Example 137, 3-((4-((3S,5R)-3-cyano-3-cyclopropyl-5-methyl-2-oxopyrrolidin-1-yl)pyridin-2-yl)amino)-1-methyl-1H-pyrazole-5-carboxamide]
  inhibition at 1 µM: 107%

## Cn1nc(Nc2cc(N3CC[C@@](C#N)(C4CC4)C3=O)ccn2)cc1C(N)=O [Example 138, 3-((4-((3S)-3-cyano-3-cyclopropyl-2-oxopyrrolidin-1-yl)pyridin-2-yl)amino)-1-methyl-1H-pyrazole-5-carboxamide]
  inhibition at 1 µM: 102%

Source: patent US20160159773A1, “HETEROCYCLIC COMPOUND” (TAKEDA PHARMACEUTICAL COMPANY LIMITED, priority 2013, published 2016)
